From patent publication US20110082171A1, “Medicaments and Methods for Inhibition of Scarring” (Renovo Limited, priority 2008, published 2011)
Entries after “also recorded” stand apart in the source; their conditions may differ. Counter-ions that a name gives are not always drawn.

Assays:
[1] = tested on: GABAA receptor; conditions: relative to GABA; cited from earlier work
[2] = molecular target: GABAA receptors containing α4β3δ subunits (Homo sapiens, UniProt P28472+P48169); conditions: Brown et al. 2002, cited from earlier work
[3] = tested on: scarring resulting from full thickness cutaneous incisional wounds; assay: Rat incisional wound scarring model, macroscopic VAS assessment of scars; format: in vivo, male Sprague Dawley rats; conditions: day 70 post-wounding
Procedure: (§1) The GABAA receptor agonist Gaboxadol hydrochloride (Sigma Aldrich, catalogue number T101) was diluted in phosphate buffered saline (PBS) to produce medicaments of the invention having the following concentrations:
(§2) i) 1.76 ng/100 μL (a concentration of 0.1 μM, in which each […] of the medicament provides 10 pmoles of Gaboxadol hydrochloride); ii) 1.76 μg/100 μL (a concentration of 100 μM, in which each 100 μl of the medicament provides 10 nmoles of Gaboxadol hydrochloride); and iii) 8.83 μg/100 μL (a concentration of 500 μM, in which each 100 μl of the medicament provides 50 nmoles of Gaboxadol hydrochloride).
(§3) At day 0, male Sprague Dawley rats (200-250 g) were anaesthetised, shaved and wound sites were marked according to a template in which two wounds, each 1 cm in length, were made at sites 5 cm from the base of the skull and 1 cm from the midline on the back of each rat.
(§4) One hundred microlitres of either one of the medicaments of the invention (comprising either 0.1 μM, 100 μM or 500 μM Gaboxadol hydrochloride in phosphate buffered saline pH 7.2—purchased from GIBCO BRL, Cat. # 20012-019), or placebo (PBS only) was injected intradermally at the wound sites. The intradermal injections caused the formation of a raised bleb, which was then immediately incised to form 1 cm long experimental wounds.
(§5) All treated or diluent control wounds were re-injected again 1 day post-wounding with the appropriate treatment (drug or placebo) via injection of 50 μl to each of the two margins of the 1 cm wound. All wounds were all harvested at day 70 post-wounding.
The wounds were photographed after wounding, prior to re-injection on day 1 and on day of harvest. The scars were assessed using a visual analogue scale (VAS) consisting of a 0-10 cm line representing a scale, from left to right, of 0 (corresponding to normal skin) to 10 (indicative of a bad scar).

[4] = tested on: scarring resulting from full thickness cutaneous incisional wounds; assay: Rat incisional wound scarring model, microscopic assessment of scars (Masson's trichrome); format: in vivo, male Sprague Dawley rats; conditions: day 70 post-wounding
Procedure: as §1, §2, §3, §4, §5
For microscopic assessment the scars were excised from the experimental rats (incorporating a small amount of surrounding normal tissue) and fixed in 10% (v/v) buffered formal saline. The fixed tissue was then processed for wax histology, stained using Masson's trichrome, and scarring in the regenerated dermis was assessed.

Chain of GABAA receptors containing α4β3δ subunits (P48169 36-554): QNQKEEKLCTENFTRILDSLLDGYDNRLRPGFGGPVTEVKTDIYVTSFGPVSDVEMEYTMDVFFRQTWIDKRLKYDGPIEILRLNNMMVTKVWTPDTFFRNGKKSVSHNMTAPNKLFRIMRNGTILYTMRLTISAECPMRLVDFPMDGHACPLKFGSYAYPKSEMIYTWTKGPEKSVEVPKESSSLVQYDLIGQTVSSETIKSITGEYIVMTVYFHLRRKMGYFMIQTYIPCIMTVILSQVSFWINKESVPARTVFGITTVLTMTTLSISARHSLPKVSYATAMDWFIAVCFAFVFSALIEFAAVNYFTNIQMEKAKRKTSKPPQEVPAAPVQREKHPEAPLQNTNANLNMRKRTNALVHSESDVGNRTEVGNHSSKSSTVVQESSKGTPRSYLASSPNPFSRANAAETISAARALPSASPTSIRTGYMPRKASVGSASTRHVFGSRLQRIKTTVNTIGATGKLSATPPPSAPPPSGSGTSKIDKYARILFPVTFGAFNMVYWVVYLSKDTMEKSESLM
Chain of GABAA receptors containing α4β3δ subunits (P28472 26-473): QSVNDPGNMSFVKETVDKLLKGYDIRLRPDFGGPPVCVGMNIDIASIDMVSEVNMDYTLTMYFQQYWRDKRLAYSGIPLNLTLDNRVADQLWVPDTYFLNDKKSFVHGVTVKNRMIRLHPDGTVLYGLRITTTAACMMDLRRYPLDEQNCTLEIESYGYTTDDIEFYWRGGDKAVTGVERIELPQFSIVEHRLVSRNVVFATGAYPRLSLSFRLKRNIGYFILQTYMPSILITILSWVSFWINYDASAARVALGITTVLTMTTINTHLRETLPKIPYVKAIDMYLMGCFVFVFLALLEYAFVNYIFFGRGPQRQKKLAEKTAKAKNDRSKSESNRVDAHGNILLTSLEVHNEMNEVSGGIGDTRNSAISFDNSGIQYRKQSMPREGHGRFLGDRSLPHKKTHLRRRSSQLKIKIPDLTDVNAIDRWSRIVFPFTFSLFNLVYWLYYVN
Chain of GABAA receptors containing α4β3δ subunits (O14764 25-452 partner): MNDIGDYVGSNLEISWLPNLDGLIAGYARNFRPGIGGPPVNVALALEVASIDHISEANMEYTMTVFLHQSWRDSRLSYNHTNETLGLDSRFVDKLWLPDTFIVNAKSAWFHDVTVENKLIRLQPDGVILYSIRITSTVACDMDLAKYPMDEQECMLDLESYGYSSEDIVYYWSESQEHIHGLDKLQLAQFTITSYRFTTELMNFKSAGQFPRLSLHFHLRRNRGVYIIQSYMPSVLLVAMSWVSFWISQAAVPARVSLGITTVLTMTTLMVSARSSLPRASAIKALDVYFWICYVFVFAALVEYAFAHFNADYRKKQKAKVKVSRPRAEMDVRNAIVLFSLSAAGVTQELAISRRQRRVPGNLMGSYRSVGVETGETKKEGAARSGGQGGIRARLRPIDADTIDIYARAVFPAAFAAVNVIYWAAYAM

In the case of `Oc1noc2c1CCNC2` [Gaboxadol, 4,5,6,7-tetrahydroisoxazolo[5,4-c]pyridine-3-ol], the “affinity for GABAA receptors compared with GABA (in words)” value [1] is listed as “affinity higher than that of GABA itself”, the EC50 [2] is listed as 6 µM and the “maximum response (% of that of GABA)” value ([2]; relative to GABA) is listed as 163%.
In the case of `NCc1cc(=O)[nH]o1` [Muscimol, muscimol], the “affinity at the GABAA receptor, greater than GABA” value [1] is listed as 10 fold.
In the case of `Oc1noc2c1CCNC2` [Gaboxadol hydrochloride], the “macroscopic appearance of scars (VAS) versus diluent control” value ([3]; 0.1 μM solution in PBS, two intradermal injections of 100 μl (1.76 ng per centimetre each)) is reported as “improved the macroscopic appearance of scars; also recorded: statistically significant inhibition of scarring”, the “macroscopic appearance of scars (VAS) versus diluent control” value ([3]; 100 μM solution in PBS, two intradermal injections of 100 μl (1.76 μg per centimetre each)) is reported as “improved the macroscopic appearance of scars; also recorded: trend towards scar reduction” and the “macroscopic appearance of scars (VAS) versus diluent control” value ([3]; 500 μM solution in PBS, two intradermal injections of 100 μl (8.83 μg per centimetre each)) is reported as “improved the macroscopic appearance of scars”. The scarring assessed microscopically ([4]; 0.1 μM solution in PBS) was “reduction of scarring”, the scarring assessed microscopically ([4]; 100 μM solution in PBS) was “reduction of scarring” and the scarring assessed microscopically ([4]; 500 μM solution in PBS) was “reduction of scarring”.
